According to PMC10294390 (BMC Complementary Medicine and Therapies, 2023):

Experiments:
DLD-1 colon tumor model = test system: DLD-1 colon tumor model; set-up: method as in PMID 14692718; settings: cited from earlier work
[1] = test system: CRL1554 normal human fibroblast cells; experiment: MTT assay, cytotoxicity of PPCs on normal fibroblasts; settings: PPCs 20-160 µM, 72 h
Procedure: The cytotoxicity of a panel of 14 PPCs (Kmf, Cur, Que, Rsv, HHG, Hsp, BetA, IC3, Cmr, Sul, Irt, Lyc, Sil, and Snn) on CRL1554 normal human fibroblast cells was determined using the MTT assay [16]. CRL1554 cells were seeded (27 × 10^3 cells/well) into 96-well flat-bottomed plates and incubated at 37 °C for 18 h. Subsequently, the medium was removed, and the cells were washed with Hanks balanced salt solution (HBSS; 100 µl/well), and treated with various concentrations of PPCs (20, 40, 60, 80, 100, 120, 140 and 160 µM) for 72 h. The cells were then washed twice with HBSS, and 100 μl medium with 20 µl (5 mg/ml) MTT solution in PBS was added to each well and incubated at 37 °C for 4 h. The supernatants were aspirated, and 200 μL of dimethyl sulfoxide (DMSO) was added to dissolve the formazan crystals. Finally, the absorbance was measured using a multiwell spectrophotometer at two wavelengths (λ, 492 and 570 nm).

[2] = test system: SW1116 human colon cancer cell line; experiment: MTT assay, single and schedule-dependent combined treatment; type: cell-based; settings: Homo sapiens, SW 1116, PPC alone, MTT, Fig. 1B
Procedure: (§1) The plates were washed, and PPCs [Cur, Kmf, or Que (60 or 120 µM), or Rsv (40 or 80 µM)] were added, followed by incubation at 37 °C for 48 h. For inverted sequential treatment, PPC [Cur, Kmf, or Que (60 or 120 µM), or Rsv (40 or 80 µM)] was added and incubated at 37 °C for 24 h. […] Cell growth was monitored as previously described.

[3] = test system: SW837 human rectum cancer cell line; experiment: as above; type: cell-based; settings: PPC alone, MTT, Fig. 1C; for cytotoxicity mean: SW837
Procedure: as §1

SW837 cells [4] = experiment: Cell cycle analysis by flow cytometry (PI); type: cell-based, human; settings: 72 h
Procedure: (§2) The cells were subsequently processed using a DNA-prep kit and DNA-Prep EPICS workstation. The cells were treated with a non-ionic detergent to permeabilize the cell membrane, followed by propidium iodide (PI) and RNase, and incubated at 15–20 °C for 15 min. The cells were resuspended in binding buffer at a concentration of 3–10 × 10^6 cells/ml for optimal staining. Fluorescence was measured using a flow cytometer (Beckman Coulter, Inc.), and the percentage of cells in the different phases of the cell cycle was calculated using the Phoenix statistical software package, Advanced DNA cell cycle software (Phoenix Flow System).

SW837 cells [5] = experiment: Annexin V-FITC/PI double staining, flow cytometry; type: cell-based, human; settings: SW837, 72 h
Procedure: (§3) The levels of cell surface phosphatidylserine were determined to monitor the type of cell death and the kinetics of apoptosis. The CRC cell lines SW1116 and SW837 were seeded (2.5 × 10^5 cells/well) into 24-well plates and incubated in a non-CO2 incubator at 37 °C for 18 h. […] The cells were subsequently washed twice with HBSS and harvested using trypsin. Finally, the cells were double-stained using the Annexin V-FITC-Flous staining kit, according to the manufacturer’s instructions (Roche Diagnostic GmbH). Annexin V-Flous labelling solution containing Annexin V-FITC and PI (100 µl) was added to both the treated and control cell groups and incubated at 15–20 °C for 15 min. The cells (1 × 10^6 cells/ml) were then resuspended in binding buffer, and fluorescence was monitored using flow cytometry (FC500; Beckman Coulter, Inc.).

SW837 cells [6] = experiment: DNA fragmentation assay; type: cell-based, human; settings: Sora 5 µM, PPC 200 and 400 µM, sequential combinations, 72 h, Fig. 8B, D
Procedure: (§4) Induction of apoptosis was monitored using a DNA fragmentation assay following the manufacturer’s instructions (Apoptotic DNA Ladder Detection kit; Abcam). […] Cells were subsequently incubated at 37 °C for 72 h. The cells were then trypsinized, harvested, washed, pelleted, and lysed using Tris–EDTA (TE) lysis buffer (35 µl). Enzyme A solution (RNase; 5 µl) was added, followed by incubation at 37 °C for 10 min. Enzyme B solution (proteinase; 5 µl) was then added, followed by incubation at 50 °C for 30 min. Ammonium acetate solution (5 µl) and isopropanol (50 µl) were added to each sample and incubated at -20 °C for 10 min. Finally, the DNA was pelleted, washed with 0.5 ml 70% methanol, and dissolved in 30 µl DNA suspension buffer. The extracted DNA samples were loaded onto a 1.2% agarose gel, along with a loading marker (1 kb DNA ladder), and subjected to electrophoresis, using a running buffer containing 1.35 µg/ml ethidium bromide at 5 V/cm for 1 h. Ethidium bromide-stained DNA bands were visualized using transillumination with UV light.

SW1116 cells [7] = experiment: Cell cycle analysis by flow cytometry (PI); type: cell-based, human; settings: 72 h
Procedure: as §2

SW1116 cells [8] = experiment: Annexin V-FITC/PI double staining, flow cytometry; type: cell-based, human; settings: SW1116, 72 h
Procedure: as §3

SW1116 cells [9] = experiment: DNA fragmentation assay; type: cell-based, human; settings: Sora 5 µM, PPC 200 and 400 µM, simultaneous combinations, 72 h, Fig. 8A, C
Procedure: as §4

For `CCc1c2c(nc3ccc(OC(=O)N4CCC(N5CCCCC5)CC4)cc13)-c1cc3c(c(=O)n1C2)COC(=O)[C@]3(O)CC` [Irt, irinotecan], the “delay of tumor cell growth” value (DLD-1 colon tumor model) is listed as 71% and the cytotoxicity [1] is listed as 44.9–81.9%.

With `O=c1c(O)c(-c2ccc(O)cc2)oc2cc(O)cc(O)c12` [Kmf, kaempferol] the IC50 [2] was 100 µM, the cytotoxicity mean [3] was 21 ± 3.5% and the “%G0/G1 (cells in G0/G1 phase)” value (SW837 cells [4]; PPC 200 µM alone) was 60.4%. The “%G2/M (cells in G2/M phase)” value (SW837 cells [4]; PPC 200 µM alone) was 5.9%, the “%S (cells in S phase)” value (SW837 cells [4]; PPC 200 µM alone) was 33.6% and the “%SubG1 (cells in sub G1)” value (SW837 cells [4]; PPC 200 µM alone) was 1.3%. For the same molecule, the “%G0/G1 (cells in G0/G1 phase)” value (SW837 cells [4]; PPC 400 µM alone) was 59.9%, the “%G2/M (cells in G2/M phase)” value (SW837 cells [4]; PPC 400 µM alone) was 6.3% and the “%S (cells in S phase)” value (SW837 cells [4]; PPC 400 µM alone) was 33.6%. For the same molecule, the “%SubG1 (cells in sub G1)” value (SW837 cells [4]; PPC 400 µM alone) was 2.7%, the “B1, percentage of necrotic cells” value (SW837 cells [5]; PPC 200 µM alone) was 4.9% and the “B2, percentage of late apoptotic cells” value (SW837 cells [5]; PPC 200 µM alone) was 20.5%. For the same molecule, the “B4, percentage of early apoptotic cells” value (SW837 cells [5]; PPC 200 µM alone) was 2.5%, the “B1, percentage of necrotic cells” value (SW837 cells [5]; PPC 400 µM alone) was 36.8% and the “B2, percentage of late apoptotic cells” value (SW837 cells [5]; PPC 400 µM alone) was 44.4%. For the same molecule, the “B4, percentage of early apoptotic cells” value (SW837 cells [5]; PPC 400 µM alone) was 2.8%, the DNA fragmentation (SW837 cells [6]) was “increased levels of DNA fragmentation” and the cytotoxicity [1] was 0.0–1.1%. The cytotoxicity ([1]; listed as kaempferol) was at most 20%.

In the case of `CC(C)=CCC/C(C)=C/C=C/C(C)=C/C=C/C(C)=C/C=C/C=C(C)/C=C/C=C(C)/C=C/C=C(\C)CCC=C(C)C` [Lyp, lycopene], the cytotoxicity [1] is reported as 39.7–66.6%.

With `O=c1c(O)c(-c2ccc(O)c(O)c2)oc2cc(O)cc(O)c12` [Que, quercetin] the IC50 [2] was 160 µM, the cytotoxicity mean [3] was 19 ± 3% and the “%G0/G1 (cells in G0/G1 phase)” value (SW1116 cells [7]; PPC 200 µM alone) was 39.6%. The “%G2/M (cells in G2/M phase)” value (SW1116 cells [7]; PPC 200 µM alone) was 15.0%, the “%S (cells in S phase)” value (SW1116 cells [7]; PPC 200 µM alone) was 45.0% and the “%G0/G1 (cells in G0/G1 phase)” value (SW1116 cells [7]; PPC 400 µM alone) was 38.5%. The “%G2/M (cells in G2/M phase)” value (SW1116 cells [7]; PPC 400 µM alone) was 14.1%, the “%S (cells in S phase)” value (SW1116 cells [7]; PPC 400 µM alone) was 47.2% and the “%SubG1 (cells in sub G1)” value (SW1116 cells [7]; PPC 400 µM alone) was 8.4%. The “B1, percentage of necrotic cells” value (SW1116 cells [8]; PPC 200 µM alone) was 4.5%, the “B2, percentage of late apoptotic cells” value (SW1116 cells [8]; PPC 200 µM alone) was 24.5% and the “B4, percentage of early apoptotic cells” value (SW1116 cells [8]; PPC 200 µM alone) was 4.2%. The “B1, percentage of necrotic cells” value (SW1116 cells [8]; PPC 400 µM alone) was 31.1%, the “B2, percentage of late apoptotic cells” value (SW1116 cells [8]; PPC 400 µM alone) was 34.1% and the “B4, percentage of early apoptotic cells” value (SW1116 cells [8]; PPC 400 µM alone) was 0.8%. For the same molecule, the “induction of apoptosis as indicated by DNA fragmentation” value (SW1116 cells [9]) was “marked induction of apoptosis”, the cytotoxicity [1] was 0.0–16.2% and the cytotoxicity ([1]; listed as quercetin) was at most 20%.

With `Oc1ccc(/C=C/c2cc(O)cc(O)c2)cc1` [Rsv, resveratrol] the IC50 [2] was 70 µM, the IC50 ([3]; Homo sapiens, SW837, SW837, read-out: IC50) was 140 µM and the cytotoxicity [1] was 0.0–3.3%. For the same molecule, the cytotoxicity ([1]; listed as resveratrol) was at most 20%.

With `COc1cc(C2Oc3cc([C@H]4Oc5cc(O)cc(O)c5C(=O)[C@@H]4O)ccc3OC2CO)ccc1O` (stereo partly shown) [Sin, silibinin] the cytotoxicity [1] was 0.0–5.54%.

With `CC1=C(CC(=O)O)c2cc(F)ccc2/C1=C\c1ccc([S+](C)[O-])cc1` (stereo not shown) [Sul, sulanidac] the cytotoxicity [1] was 38.94–98%.
